Consider two compounds from patent publication US9670197B2, “Small molecule modifiers of the Hec1-Nek2 interaction in G2/M” (The Regents of the University of California, priority 2013, dated 2017).

SMILES strings stand for the structures.

Common to all, as to type: cell-based
One assay has as its system HS27. Put plainly: Growth inhibition, normal skin fibroblast HS27. Particulars: for IC50: Homo sapiens, Table 2, Fibroblast, HS27, read-out: cell growth suppression; for growth inhibitory effect on non-tumorgenic fibroblast cells: data not shown. Here is the method: (§1) Cell lines and establishment of stable cell lines. Human breast cancer cell lines MDA-MB-231 and MDA-MB-468, osteosarcoma line U20S, cervical adenocarcinoma line HeLa, and normal skin fibroblast Hs27 were maintained in DMEM medium (Invitrogen, Grand Island, N.Y.) supplemented 10% fetal bovine serum (FBS) and 1% penicillin-streptomycin. The leukemia cell line K562 and glioblastoma cell line T98G were grown in RPMI 1640 supplemented 10% FBS and 1% penicillin-streptomycin. Normal mammary gland epithelial cell line MCF10A was cultured in DMEM/F12 (50:50) plus 5% horse serum, 0.1 μg/mL cholera toxin, 10 μg/mL insulin, 0.5 μg/mL hydrocortisone, and 20 ng/mL epidermal growth factor. To establish MDA-MB-468 cells that stably expressed each individual GFP-Hec1 deletion construct described above, cells were infected with retrovirus expressing GFP-Hec1 WT, GFP-Hec1 W395A and GFP-Hec1 WLK/AAA, and were selected with 2 μg/ml puromycin.

A further assay deals with pS165 Hec1. Briefly: Phosphorylated Hec1 (pS165 Hec1) level in treated HeLa cells. Particulars: 1 μM, 4 to 24 hours. How it is done:
(§2) Protein extraction and western blot analysis. The protein extractions and western blot analyses of Examples 4-6 were conducted as follows. Cell extracts were prepared and equal amounts of protein were separated by SDS-PAGE (10% w/v gel) followed by electrophoretic transfer to PVDF membranes (Millipore, Billerica, Mass.). After blocking with 5% w/v powdered non-fat milk, the membrane was incubated with different antibodies for overnight at 4° C. and treated for 1 hr with horseradish peroxidase-conjugated goat anti-mouse IgG and goat anti-rabbit IgG antibodies (GeneTex, Irvine, Calif.). ECL detection of the horseradish peroxidase reaction was performed according to the manufacturer's instructions (Millipore, Billerica, Mass.). Protein signal was measured on a LAS 4000 mini Imaging System (Fujifilm, Valhalla, N.Y.).
The following antibodies were used in the experiments described in Examples 4-6. Mouse anti-Hec1 clone 9G3, mouse anti-Nek2, mouse anti-myc, mouse anti-PLK1, mouse anti-p84, mouse anti-GAPDH, rabbit anti-Aurora A and rabbit anti-cyclin B1 antibodies (GeneTex, Irvine, Calif.), mouse anti-GFP (Roche, Indianapolis, Ind.), human anti-ACA (Antibodies Inc., Davis, Calif.), mouse anti-alpha-tubulin, rabbit anti-gamma tubulin (Sigma-Aldrich, St. Louis, Mo.), and secondary antibodies conjugated with Alexa dyes (Invitrogen, Grand Island, N.Y.). […]

The next assay concerns Nek2. Briefly: Nek2 protein level in treated HeLa cells, western blot. As to conditions: dose series. How it is done:
(§3) INH-induced Nek2 degradation; INH-inhibition of Hec1 phosphorylation by Nek2. […] To evaluate whether INH treatment affected cell cycle profile or Nek2 mRNA level, we performed FACS and real-time PCR analysis.
as §2
For orientation: A western blot detects proteins with antibodies after separation by electrophoresis.

The subject of another assay is PLK1. Briefly: PLK1 expression in treated HeLa cells, western blot. Particulars: dose series. How it is done: as §3, §2
The next assay concerns the target T1, Hec1 (Homo sapiens, UniProt O14777).
T1 construct: expressed in transfected cells; host or cells: HeLa cells (extracts)
T1 sequence (O14777 1-642): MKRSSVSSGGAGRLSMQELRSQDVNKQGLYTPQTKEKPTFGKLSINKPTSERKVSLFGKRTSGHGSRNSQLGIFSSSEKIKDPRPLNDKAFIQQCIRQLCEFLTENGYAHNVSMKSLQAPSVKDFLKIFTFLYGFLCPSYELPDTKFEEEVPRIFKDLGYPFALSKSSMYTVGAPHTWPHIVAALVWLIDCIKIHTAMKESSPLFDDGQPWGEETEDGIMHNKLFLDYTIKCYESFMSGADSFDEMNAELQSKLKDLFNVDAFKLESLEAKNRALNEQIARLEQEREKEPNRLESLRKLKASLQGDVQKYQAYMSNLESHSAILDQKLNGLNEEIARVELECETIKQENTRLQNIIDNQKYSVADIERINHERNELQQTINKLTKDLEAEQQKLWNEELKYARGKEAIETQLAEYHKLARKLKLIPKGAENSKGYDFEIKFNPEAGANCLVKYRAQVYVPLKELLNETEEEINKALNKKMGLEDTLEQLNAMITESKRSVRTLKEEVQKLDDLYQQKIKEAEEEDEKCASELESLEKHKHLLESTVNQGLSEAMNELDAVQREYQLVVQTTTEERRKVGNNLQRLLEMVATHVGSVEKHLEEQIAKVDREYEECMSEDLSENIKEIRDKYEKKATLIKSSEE
Briefly: Hec1 protein level in treated HeLa cells, western blot. As to conditions: 1 μM, time course. How it is done: as §3, §2

The subject of the next assay is HeLa. Briefly: Cancer cell growth inhibition, HeLa. As to conditions: Homo sapiens; Table 2, Cervical, HeLa; read-out: cancer cell growth suppression. Here is the method:
as §1

A further assay relates to cyclin B1. Put plainly: Cyclin B1 level in treated HeLa cells, western blot. Particulars: dose series. How it is done: as §3, §2
The test system of a further assay is MB468. Put plainly: Cancer cell growth inhibition, MB468 (MDA-MB-468). Particulars: Homo sapiens, Table 2, Breast adenocarcinoma, read-out: cancer cell growth suppression.

With `Cc1cc(C)c(-c2csc(C(=O)c3ccncc3)n2)c(C)c1` [INH41, (4-mesitylthiazol-2-yl)(pyridin-4-yl)methanone], the IC50 came to 62 µM with HS27, 0.67 µM in the assay with HeLa and 0.69 µM in the assay with MB468. Further, the “growth inhibitory effect on non-tumorgenic fibroblast cells” value with HS27 is “Neither INH41 nor INH154 had significant growth inhibitory effects”. Besides, the “phosphorylated Hec1 levels (pS165 Hec1)” value with pS165 Hec1 is recorded as “notably reduced in a time-dependent fashion”. For the same compound, in the assay with Nek2, the “Nek2 degradation, dose dependence” value is listed as “degraded in a dose-dependent manner”. Besides, the “expression of PLK1” value in the assay on PLK1 is “not affected”. Moreover, at Hec1, the “change in Hec1 protein level” value is “little change”. For the same compound, the “change in cyclin B1” value with cyclin B1 is recorded as “no significant change”.
For the compound `Cc1cc(N2CCCCC2)cc(C)c1-c1csc(NC(=O)c2ccncc2)n1` [INH154, N-(4-(2,6-Dimethyl-4-(piperidin-1-yl)phenyl)thiazol-2-yl)isonicotinamide], in the assay on HS27, the IC50 is 40 µM and the “growth inhibitory effect on non-tumorgenic fibroblast cells” value is on record as “Neither INH41 nor INH154 had significant growth inhibitory effects”. For the same compound, the “phosphorylated Hec1 levels (pS165 Hec1)” value with pS165 Hec1 is reported as “notably reduced in a time-dependent fashion”. The “Nek2 degradation, dose dependence” value with Nek2 is “degraded in a dose-dependent manner”. The “expression of PLK1” value in the assay on PLK1 is given as “not affected”. The “change in Hec1 protein level” value at Hec1 was “little change”. In addition, the “change in cyclin B1” value with cyclin B1 is “no significant change”.
